Data reported in patent US9944602B2, “Piperidinone herbicides” (E. I. DU PONT DE NEMOURS AND COMPANY, priority 2014, dated 2018).

Columns and labels:
Assay type in all cases: in vivo
[1] = system: foxtail, giant (giant foxtail, Setaria faberii); experiment: Test A postemergence foxtail, giant; details: Setaria faberi, post-emergence, 240 h, 0 to 100 scale, 0 is no effect, 100 is complete control, read-out: Plant response rating, Foxtail, Giant; for pest or weed control at 125 g/ha: 125 g ai/ha; for pest or weed control at 500 g/ha: 500 g ai/ha
Outline: (§1)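 Compounds in non-phytotoxic solvent with surfactant, applied preemergence as directed soil spray on seeds in loam–sand blend, or postemergence to plants 2–10 cm tall at one- to two-leaf stage. Greenhouse ~10 d, then visual injury versus untreated controls, 0 (no effect) to 100 (complete control).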

[2] = system: ducksalad (Heteranthera limosa); experiment: Test B flooded paddy test ducksalad; details: Heteranthera limosa, Table B, Flood, 250 g ai/ha, scale 0 to 100, read-out: Plant response rating
Outline: (§2)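 Plants grown to the 2-leaf stage; pots flooded to 3 cm above soil at treatment, compound applied directly into paddy water, depth held throughout. Greenhouse 13 to 15 d, then visual evaluation against untreated controls.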

corn (Zea mays) = experiment: Test A postemergence corn; details: Zea mays, post-emergence, 240 h, 0 to 100 scale, 0 is no effect, 100 is complete control; for Corn plant response rating (crop injury, 0 = no effect, 100 = complete kill) at 125 g/ha: 125 g ai/ha; for Corn plant response rating (crop injury, 0 = no effect, 100 = complete kill) at 500 g/ha: 500 g ai/ha
Outline: as §1

[3] = system: galium (catchweed bedstraw, Galium aparine); experiment: Test A postemergence galium; details: Galium, post-emergence, 240 h, 0 to 100 scale, 0 is no effect, 100 is complete control, read-out: Plant response rating, Galium; for pest or weed control at 125 g/ha: 125 g ai/ha; for pest or weed control at 500 g/ha: 500 g ai/ha
Outline: as §1

kochia (Kochia scoparia) [4] = experiment: Test A preemergence kochia; details: Bassia scoparia, pre-emergence, 240 h, 0 to 100 scale, 0 no effect, 100 complete control, read-out: Kochia plant response rating; for pest or weed control at 125 g/ha: 125 g ai/ha; for pest or weed control at 500 g/ha: 500 g ai/ha
Outline: as §1

[5] = system: wheat (Triticum aestivum); experiment: Test A postemergence wheat; details: Triticum aestivum, post-emergence, 240 h, 0 to 100 scale, 0 is no effect, 100 is complete control, read-out: Plant response rating, Wheat; for plant injury at 125 g/ha: 125 g ai/ha; for plant injury at 500 g/ha: 500 g ai/ha
Outline: as §1

[6] = system: barnyardgrass (Echinochloa crus-galli); experiment: Test B flooded paddy test barnyardgrass; details: Echinochloa crus-galli, Table B, Flood, 250 g ai/ha, scale 0 to 100, read-out: Plant response rating
Outline: as §2

kochia (Kochia scoparia) [7] = experiment: Test A postemergence kochia; details: Bassia scoparia, post-emergence, 240 h, 0 to 100 scale, 0 is no effect, 100 is complete control, read-out: Plant response rating, Kochia; for pest or weed control at 125 g/ha: 125 g ai/ha; for pest or weed control at 500 g/ha: 500 g ai/ha
Outline: as §1

[8] = system: foxtail, giant (giant foxtail, Setaria faberii); experiment: Test A preemergence foxtail, giant; details: Setaria faberi, pre-emergence, 240 h, 0 to 100 scale, 0 no effect, 100 complete control, read-out: Foxtail, Giant plant response rating; for pest or weed control at 125 g/ha: 125 g ai/ha; for pest or weed control at 500 g/ha: 500 g ai/ha
Outline: as §1

[9] = system: blackgrass (Alopecurus myosuroides); experiment: Test A postemergence blackgrass; details: Alopecurus myosuroides, post-emergence, 240 h, 0 to 100 scale, 0 is no effect, 100 is complete control, read-out: Plant response rating, Blackgrass; for pest or weed control at 125 g/ha: 125 g ai/ha; for pest or weed control at 500 g/ha: 500 g ai/ha
Outline: as §1

[10] = system: ragweed (common ragweed, Ambrosia elatior); experiment: Test A postemergence ragweed; details: Ambrosia artemisiifolia, post-emergence, 240 h, 0 to 100 scale, 0 is no effect, 100 is complete control, read-out: Plant response rating, Ragweed; for pest or weed control at 125 g/ha: 125 g ai/ha; for pest or weed control at 500 g/ha: 500 g ai/ha
Outline: as §1

rice (Oryza sativa) = experiment: Test B flooded paddy test rice; details: Oryza sativa, Table B, Flood, 250 g ai/ha, scale 0 to 100, read-out: Plant response rating
Outline: as §2

[11] = system: ryegrass, Italian (Italian ryegrass, Lolium multiflorum); experiment: Test A postemergence ryegrass, Italian; details: Lolium multiflorum, post-emergence, 240 h, 0 to 100 scale, 0 is no effect, 100 is complete control, read-out: Plant response rating, Ryegrass, Italian; for pest or weed control at 125 g/ha: 125 g ai/ha; for pest or weed control at 500 g/ha: 500 g ai/ha
Outline: as §1

[12] = system: barnyardgrass (Echinochloa crus-galli); experiment: Test A preemergence barnyardgrass; details: Echinochloa crus-galli, pre-emergence, 240 h, 0 to 100 scale, 0 no effect, 100 complete control, read-out: Barnyardgrass plant response rating; for pest or weed control at 125 g/ha: 125 g ai/ha; for pest or weed control at 500 g/ha: 500 g ai/ha
Outline: as §1

[13] = system: sedge, umbrella (small-flower umbrella sedge, Cyperus difformis); experiment: Test B flooded paddy test sedge, umbrella; details: Cyperus difformis, Table B, Flood, 250 g ai/ha, scale 0 to 100, read-out: Plant response rating
Outline: as §2

[14] = system: barnyardgrass (Echinochloa crus-galli); experiment: Test A postemergence barnyardgrass; details: Echinochloa crus-galli, post-emergence, 240 h, 0 to 100 scale, 0 is no effect, 100 is complete control, read-out: Plant response rating, Barnyardgrass; for pest or weed control at 125 g/ha: 125 g ai/ha; for pest or weed control at 500 g/ha: 500 g ai/ha
Outline: as §1

[15] = system: ragweed (common ragweed, Ambrosia elatior); experiment: Test A preemergence ragweed; details: Ambrosia artemisiifolia, pre-emergence, 240 h, 0 to 100 scale, 0 no effect, 100 complete control, read-out: Ragweed plant response rating; for pest or weed control at 125 g/ha: 125 g ai/ha; for pest or weed control at 500 g/ha: 500 g ai/ha
Outline: as §1

[16] = system: ryegrass, Italian (Italian ryegrass, Lolium multiflorum); experiment: Test A preemergence ryegrass, Italian; details: Lolium multiflorum, pre-emergence, 240 h, 0 to 100 scale, 0 no effect, 100 complete control, read-out: Ryegrass, Italian plant response rating; for pest or weed control at 125 g/ha: 125 g ai/ha; for pest or weed control at 500 g/ha: 500 g ai/ha
Outline: as §1

[17] = system: pigweed (Amaranthus retroflexus); experiment: Test A postemergence pigweed; details: Amaranthus retroflexus, post-emergence, 240 h, 0 to 100 scale, 0 is no effect, 100 is complete control, read-out: Plant response rating, Pigweed; for pest or weed control at 125 g/ha: 125 g ai/ha; for pest or weed control at 500 g/ha: 500 g ai/ha
Outline: as §1

[18] = system: pigweed (Amaranthus retroflexus); experiment: Test A preemergence pigweed; details: Amaranthus retroflexus, pre-emergence, 240 h, 0 to 100 scale, 0 no effect, 100 complete control, read-out: Pigweed plant response rating; for pest or weed control at 125 g/ha: 125 g ai/ha; for pest or weed control at 500 g/ha: 500 g ai/ha
Outline: as §1

## O=C1NCC[C@H](c2cccc(C(F)(F)F)c2)[C@H]1C(=O)Nc1cccc(Cl)c1F [Compound 25, (3R,4S)—N-(3-chloro-2-fluorophenyl)-2-oxo-4-[3-(trifluoromethyl)phenyl]-3-piperidinecarboxamide]
[1]
  pest or weed control at 125 g/ha: 80%
  pest or weed control at 500 g/ha: 80%
[2]
  pest or weed control at 250 g/ha: 45%
Corn (Zea mays)
  Corn plant response rating (crop injury, 0 = no effect, 100 = complete kill) at 125 g/ha: 20%
  Corn plant response rating (crop injury, 0 = no effect, 100 = complete kill) at 500 g/ha: 70%
[3]
  pest or weed control at 125 g/ha: 30%
  pest or weed control at 500 g/ha: 30%
Kochia (Kochia scoparia) [4]
  pest or weed control at 125 g/ha: 0%
  pest or weed control at 500 g/ha: 0%
[5]
  plant injury at 125 g/ha: 40%
  plant injury at 500 g/ha: 60%
[6]
  pest or weed control at 250 g/ha: 60%
Kochia (Kochia scoparia) [7]
  pest or weed control at 125 g/ha: 0%
  pest or weed control at 500 g/ha: 0%
[8]
  pest or weed control at 125 g/ha: 90%
  pest or weed control at 500 g/ha: 90%
[9]
  pest or weed control at 125 g/ha: 60%
  pest or weed control at 500 g/ha: 80%
[10]
  pest or weed control at 125 g/ha: 0%
  pest or weed control at 500 g/ha: 0%
Rice (Oryza sativa)
  plant injury at 250 g/ha: 0%
[11]
  pest or weed control at 125 g/ha: 30%
  pest or weed control at 500 g/ha: 40%
[12]
  pest or weed control at 125 g/ha: 90%
  pest or weed control at 500 g/ha: 90%
[13]
  pest or weed control at 250 g/ha: 0%
[14]
  pest or weed control at 125 g/ha: 80%
  pest or weed control at 500 g/ha: 80%
[15]
  pest or weed control at 125 g/ha: 0%
  pest or weed control at 500 g/ha: 0%
[16]
  pest or weed control at 125 g/ha: 0%
  pest or weed control at 500 g/ha: 50%
[17]
  pest or weed control at 125 g/ha: 0%
  pest or weed control at 500 g/ha: 0%
[18]
  pest or weed control at 125 g/ha: 0%
  pest or weed control at 500 g/ha: 0%

## O=C1NCCC(c2cccc(C(F)(F)F)c2)C1C(=O)Nc1ccc(F)c(F)c1F (stereo not drawn) [Compound 30, 2-oxo-4-[3-(trifluoromethyl)phenyl]-N-(2,3,4-trifluorophenyl)-3-piperidinecarboxamide]
[1]
  pest or weed control at 125 g/ha: 80%
  pest or weed control at 500 g/ha: 80%
[2]
  pest or weed control at 250 g/ha: 50%
Corn (Zea mays)
  Corn plant response rating (crop injury, 0 = no effect, 100 = complete kill) at 125 g/ha: 30%
  Corn plant response rating (crop injury, 0 = no effect, 100 = complete kill) at 500 g/ha: 70%
[3]
  pest or weed control at 125 g/ha: 0%
  pest or weed control at 500 g/ha: 0%
Kochia (Kochia scoparia) [4]
  pest or weed control at 125 g/ha: 0%
  pest or weed control at 500 g/ha: 0%
[5]
  plant injury at 125 g/ha: 30%
  plant injury at 500 g/ha: 60%
[6]
  pest or weed control at 250 g/ha: 50%
Kochia (Kochia scoparia) [7]
  pest or weed control at 125 g/ha: 0%
  pest or weed control at 500 g/ha: 0%
[8]
  pest or weed control at 125 g/ha: 90%
  pest or weed control at 500 g/ha: 90%
[9]
  pest or weed control at 125 g/ha: 70%
  pest or weed control at 500 g/ha: 80%
[10]
  pest or weed control at 125 g/ha: 0%
  pest or weed control at 500 g/ha: 0%
Rice (Oryza sativa)
  plant injury at 250 g/ha: 20%
[11]
  pest or weed control at 125 g/ha: 0%
  pest or weed control at 500 g/ha: 20%
[12]
  pest or weed control at 125 g/ha: 90%
  pest or weed control at 500 g/ha: 90%
[13]
  pest or weed control at 250 g/ha: 0%
[14]
  pest or weed control at 125 g/ha: 80%
  pest or weed control at 500 g/ha: 80%
[15]
  pest or weed control at 125 g/ha: 0%
  pest or weed control at 500 g/ha: 0%
[16]
  pest or weed control at 125 g/ha: 20%
  pest or weed control at 500 g/ha: 50%
[17]
  pest or weed control at 125 g/ha: 0%
  pest or weed control at 500 g/ha: 0%
[18]
  pest or weed control at 125 g/ha: 0%
  pest or weed control at 500 g/ha: 0%
